From patent US10933032B2, “Methods for the treatment of cancer using coenzyme Q10 combination therapies” (Berg LLC, priority 2013, dated 2021)
“Also recorded” adds a separate entry of the source.

Key:
[1] = system: MIAPaCa-2 human pancreatic tumor cells; assay: Xenogeneic mouse human pancreatic cancer model, survival; assay type: in vivo, NOD scid gamma (NSG) mice; conditions: for Survival (prolongation of life) compared to untreated control: Example 1, Regimen 1, single agent: IV 4% Coenzyme Q10 50 mg/kg/day, or IV gemcitabine 150 mg/kg/week for 3 weeks with one week rest; for Survival, combination of CoQ10 and gemcitabine vs other groups: Example 1, Regimen 1: IV CoQ10 50 mg/kg/day + IV gemcitabine 150 mg/kg weekly for 3 weeks with one week rest
cells = assay: Relative timing of CoQ10 and chemotherapeutic agents, cell killing in vitro (Example 7); assay type: cell-based; conditions: Example 7, written in present tense
Description: Using the methods in Example 6, cells are tested to determine if the relative timing of treatment of cells with CoQ10 and chemotherapeutic agents has an effect on cell killing, e.g., by promotion of apoptosis, induction of tumor lysis, inhibition of cell proliferation.
Briefly, cells are cultured as in Example 6. Cells are treated with CoQ10 and chemotherapeutic agents, either alone or in combination, or with appropriate vehicle controls. For the cells treated with both CoQ10 and chemotherapeutic agents, the cells are contacted with the CoQ10 and chemotherapeutic agents in various sequences. Various concentrations of CoQ10 and chemotherapeutic agents are used. Various treatment times are also used.
After treatment with CoQ10 and chemotherapy as indicated, cells are harvested and assayed for viability and apoptosis using the methods provided above. […] The metabolic switch effectuated by CoQ10 in cancer cells is associated with induction of a novel integrated signaling cross-talk involving TP53, Bcl-2/Bax and VEGF that results in the recapitulation of apoptotic pathways.

[2] = system: normal cells, including keratinocytes and dermal fibroblasts; assay: Proliferation and migration of normal cells; assay type: cell-based
[3] = system: MIAPaCa-2 pancreatic cancer cells; assay type: cell-based; conditions: CoQ10 (100 μM) pre-treatment (6 hours) and co-treatment regimen, FIGS. 11-14
in vivo = conditions: rat, rats, given three times per week for 4 weeks
[4] = system: MIAPaCa-2 human pancreatic tumor cells; assay: Xenogeneic mouse human pancreatic cancer model, tumors harvested at mortality (size, weight, vasculature, palpation); assay type: in vivo, NOD scid gamma (NSG) mice
[5] = background statement; cited from earlier work
[6] = system: MDA-MB213 breast cancer cells; assay: Basal oxygen consumption rate (OCR) and extracellular acidification rate (ECAR); assay type: cell-based; conditions: 100 μM CoQ10 for 24 hours, FIG. 17
Description: (§1) Cells were treated with 100 μM CoQ10 for 24 hours.
(§2) Mitochondria represent a significant source of ROS which are known to participate in activation of cell death pathways.

[7] = system: triple-negative breast cancer (TNBC) xenografts; assay: Triple-negative breast cancer (TNBC) xenograft, survival; assay type: in vivo, Mice; conditions: FIG. 21
[8] = Prior experiments, signs of toxicity; assay type: in vivo; conditions: three times per week at up to 50 mg/kg
Description: Sterile CoQ10 formula and the suitable sterile control is administered intravenously. CoQ10 doses are administered based on ongoing results. […] The effect of CoQ10 is compared with other chemotherapy regimens specific for each cancer line. Another arm of the study evaluates synergistic effects between CoQ10 and other chemotherapeutic agents.

[9] = system: MIAPaCa-2, SKOV-3, PC-3, HT-29, MCF7, MDA-MB231, SKBR-3, A549, Hep3B cancer cells; assay: In vitro CoQ10 monotherapy of various cancer cell types; assay type: cell-based; conditions: 100 μM CoQ10 for 48-72 hours; FIG. 16
Description: Cells were treated with 100 μM CoQ10 for 48-72 hours.

tumors = conditions: Example 8, written in present tense
Description: In an in vivo tumor xenograft model, mice are implanted with tumors. For example, MIAPaCa-2 pancreatic cancer cells suspended in [sequence] are injected into NSG mice. Alternatively, other tumor cell lines, e.g., triple negative breast cancer, hepatic cancer, prostate cancer, melanoma, sarcoma, carcinoma cell lines, are used in the xenograft mouse model.
Various sequential regimens and combinations of CoQ10 and chemotherapeutic agents are tested for the ability to reduce tumor burden and/or reduce tumor metastasis. […] For example, in some animals, 2 or more cycles of CoQ10 are administered in Treatment 1 prior to one or more cycles of the chemotherapeutic agent in Treatment 2. In some animals, one cycle of CoQ10 is administered in Treatment 1 prior to administration of multiple cycles of chemotherapy in Treatment 2.
Tumor volumes are monitored using routine methods, e.g., calipers, imaging analysis. At the end of the study, tumors are excised and analyzed for using routine methods, e.g., for size (e.g., weight and volume), histological characteristics, grade, and vascularization.

[10] = system: MIAPaCa2 pancreatic cancer cells; assay: Proliferation assay (CFSE, flow cytometry); assay type: cell-based, human; conditions: MIAPaca-2; CoQ10 with gemcitabine; FIG. 13
Description: FIG. 13 is a graph showing results from proliferation assay in which MIAPaCa2 pancreatic cancer cells were treated with gemcitabine alone or in combination with CoQ10 prior to assessment of proliferation via flow cytometric analysis using the cell tracer dye CFSE which stains live cells. Values are normalized to the number of cells treated with neither CoQ10 nor the chemotherapeutic agent.
Without being bound by mechanism, it is proposed that CoQ10 effectuates a metabolic switch from glycolysis towards enhanced mitochondrial oxidative phosphorylation resulting in the recapitulation of apoptosis in cancer. The effects of CoQ10 were investigated to determine if pretreatment with CoQ10 results in mitochondrial priming, thereby augmenting the cytotoxic effect of standard of care chemotherapeutic agents. MIAPaCa-2 human pancreatic cancer cells were either (a) pretreated with CoQ10 prior to treatment with gemcitabine or (b) co-treated with CoQ10 and gemcitabine.

[11] = system: non-tumorigenic control cells (MCF12A); assay: Reactive oxygen species (ROS) production; assay type: cell-based; conditions: 100 μM CoQ10 for 24 hours, FIG. 17
Description: as §1, §2

[12] = system: MDA-MB213 breast cancer cells; assay: Reactive oxygen species (ROS) production; assay type: cell-based; conditions: 100 μM CoQ10 for 24 hours, FIG. 17
Description: as §1, §2

With `COC1=C(OC)C(=O)C(C/C=C(\C)CC/C=C(\C)CC/C=C(\C)CC/C=C(\C)CC/C=C(\C)CC/C=C(\C)CC/C=C(\C)CC/C=C(\C)CC/C=C(\C)CCC=C(C)C)=C(C)C1=O` [CoQ10, Coenzyme Q10] the “Survival rate (survival probability) at 300 days” value (shortened to “Survival rate … at 300 days”) ([1]; 50 mg/kg CoQ10, FIG. 30) was “lowest survival rate”, the “Survival rate … at 300 days” value ([1]; 100 mg/kg CoQ10, FIG. 30) was “between the other two treatment groups” and the “Survival rate … at 300 days” value ([1]; 200 mg/kg CoQ10, FIG. 30) was “highest survival rate”. For the same compound, the “Survival, pretreatment with CoQ10 for sixty days followed by gemcitabine+CoQ10” value ([1]; CoQ10 200 mg/kg, vs gemcitabine+CoQ10 from the start, gemcitabine or CoQ10 alone, FIG. 31) was “improved survival in comparison to treatment with gemcitabine+CoQ10 from the start of the treatment regimen; also recorded: improved survival outcomes”, the “Survival rate (survival probability) at 200 days” value (shortened to “Survival rate … at 200 days”) ([1]; CoQ10 60 days prior to start of gemcitabine and continuing with CoQ10, FIG. 31) was “highest survival rate” and the “Responses associated with favorable therapeutic endpoints, most notably an increase in survival” value ([1]; CoQ10 alone or CoQ10 in combination with doxorubicin, vs gemcitabine or doxorubicin) was “more effective than gemcitabine or doxorubicin”. For the same compound, the “Survival rate … at 200 days” value ([1]; CoQ10 from the start (alone), FIG. 31) was “next highest survival rate”, the “Survival (prolongation of life) compared to untreated control” value ([1]; FIG. 1) was “prolongation of life as compared to untreated control” and the “Survival (prolongation of life) compared to untreated control” value ([1]; FIG. 1, listed as Coenzyme Q10) was “increases survival time of the mice”. For the same compound, the “Survival, combination of CoQ10 and gemcitabine vs other groups” value ([1]; FIG. 1) was “prolonged survival and long-term remission that was statistically significant compared to other groups”, the “Survival, combination of CoQ10 and gemcitabine vs other groups” value ([1]; FIG. 1, listed as Coenzyme Q10) was “more effective at increasing survival time in mice bearing pancreatic tumors than treatment with either agent alone” and the “Impact on survival, CoQ10 alone vs gemcitabine alone” value ([1]; Example 1, Regimen 1: IV CoQ10 50 mg/kg/day vs gemcitabine 150 mg/kg/week, FIG. 1) was “significantly greater impact on survival than gemcitabine alone”. The “Survival, CoQ10 alone” value ([1]; Example 2, Regimen 2: 4% CoQ10 intravenous formulation 50 mg/kg intraperitoneally twice daily, 3 weeks with one week rest, vs untreated or gemcitabine alone, FIG. 4) was “increase in survival”, the “Survival, CoQ10 in combination with gemcitabine” value ([1]; Example 2, Regimen 2: CoQ10 50 mg/kg IP twice daily + gemcitabine 150 mg/kg once per week, vs untreated or gemcitabine alone, FIG. 4) was “increase in survival” and the “Survival (viability, mortality), CoQ10 in combination with doxorubicin vs doxorubicin alone” value ([1]; Example 4, once daily dosing with intravenous CoQ10, FIG. 7) was “decreased mortality rates”. The “Survival, Coenzyme Q10 alone vs control animals” value ([1]; Example 5, Regimen 3: IP 4% CoQ10 intravenous formulation 50 or 75 mg/kg/dose, 3 times daily, FIG. 8) was “significantly increased survival as compared to control animals”, the “Survival, combination of Coenzyme Q10 and gemcitabine vs same dose of Coenzyme Q10 alone” value ([1]; Example 5, Regimen 3: IP CoQ10 50 or 75 mg/kg/dose 3 times daily + IV gemcitabine 150 mg/kg weekly for 3 weeks with one week rest, FIG. 8) was “increased survival as compared to mice treated with the same dose of Coenzyme Q10 alone” and the “Survival, pretreatment with CoQ10 followed by gemcitabine vs co-treatment regimen” value ([1]; Example 11, IP CoQ10 75 mg/kg/dose 3 times daily, gemcitabine 150 mg/kg weekly initiated 1-3 weeks later, early time points, FIG. 15) was “improved survival”. The “Survival, CoQ10 + gemcitabine vs untreated control” value ([1]; Example 11, latest time point, FIG. 15) was “increases the survival in a statistically significant manner as compared to untreated control”, the “Survival, dose dependence” value ([1]; Example 17, Regimen 3: 50 mg/kg or 75 mg/kg, FIG. 29) was “dose dependent increase in survival” and the “Effect on survival when combined with gemcitabine” value ([1]; Example 17, Regimen 3, FIG. 29) was “additive effect to gemcitabine”. For the same compound, the “Survival rates, continuous infusion of CoQ10 vs three doses (50 mg/kg or 75 mg/kg)” value ([1]; Example 17, best outcomes at 200 mg/kg, FIG. 30) was “significantly improved survival rates compared to three doses”, the “Survival, continuous infusion of CoQ10 at 200 mg/kg vs 50 mg/kg” value ([1]; FIG. 30) was “significantly improved survival in comparison to 50 mg/kg CoQ10” and the “Survival rate … at 200 days” value ([1]; gemcitabine and CoQ10 from the start, FIG. 31) was “next highest survival rate”. The “Cell killing, pretreatment with CoQ10, discontinuation, then chemotherapy” value (cells) was “also effective in cell killing”, the “Cell killing, pretreatment with CoQ10 followed by concurrent CoQ10 and chemotherapy” value (cells) was “effective in cell killing” and the “Cell killing, pretreatment with CoQ10 prior to chemotherapy” value (cells) was “more effective in cell killing than co-treatment with CoQ10 and chemotherapy or treatment with CoQ10 after chemotherapy”. For the same compound, the “Proliferation and migration in normal cells” value [2] was “increased proliferation and migration”, the “Cytotoxic potential of gemcitabine” value [3] was “augmented the cytotoxic potential of gemcitabine” and the MTD at 4 weeks (in vivo) was 250 mg/kg. The “Growth of pancreatic tumors (tumor size at time of death) vs control” value ([4]; Example 1, single agents: Group 2 Coenzyme Q10 IV 50 mg/kg/day, Group 3 gemcitabine 150 mg/kg/week, FIG. 2) was “inhibited the growth of pancreatic tumors; also recorded: inhibits pancreatic tumor growth”, the “Tumor vasculature (histological analysis)” value ([4]; Example 1, intravenous Coenzyme Q10 vs untreated control mice, not quantified) was “decreased tumor vasculature; also recorded: decrease in the amount of vasculature in pancreatic tumors” and the “Tumor weight / tumor growth, combination of Coenzyme Q10 and gemcitabine (Group 4)” value ([4]; Example 1, vs Coenzyme Q10 alone or gemcitabine alone, FIG. 3) was “significantly smaller than tumors from mice treated with Coenzyme Q10 alone; also recorded: more effective at inhibiting the growth of pancreatic tumors in mice than treatment with either agent alone”. The “Tumor weight at mortality, Coenzyme Q10 alone (Group 2)” value ([4]; Example 1, vs control group and gemcitabine treated group, FIG. 3) was “significantly smaller than tumors from mice in the control group”, the Lipophilicity [5] was “very lipophilic” and the Solubility in water [5] was “insoluble in water”. The “Ratio of OCR to ECAR” value [6] was “higher ratio of OCR to ECAR”, the “Survival, CoQ10 in combination with the TAC regimen” value ([7]; 75 mg/kg CoQ10, TAC: 5 mg/kg docetaxel, 1 mg/mg doxorubicin, 35 mg/kg cyclophosphamide every three weeks for six cycles) was “significantly improved survival” and the “Survival, CoQ10 alone” value ([7]; 75 mg/kg body weight CoQ10 (BPM 31510)) was “significantly improved survival”. The Signs of toxicity [8] was “no signs of toxicity”, the “Cell death in cancer cells” value [9] was “increased cell death” and the “Efficacy (tumor burden), one or more cycles of CoQ10 prior to a chemotherapeutic agent” value (tumors) was “more effective than co-administration of CoQ10 with a chemotherapeutic agent or a chemotherapeutic agent alone”. The “Proliferation vs gemcitabine alone” value [10] was “decreased proliferation”, the ROS production [11] was “increased ROS production” and the ROS production [12] was “increased ROS production”.
